Assay: Time evolution of the photophysical properties in water
Format: physicochemical
Set-up: key to φ: fluorescence quantum yield, fraction (0.65 = 65%)
Settings: for kfl / knr / εmax / λab / λfl / τ / φ: water
Protocol: Indeed, the fluorescence yield remains constant for 7 hours. However, due to the oligomerization of hydrolysis product 6 and to the ensuing precipitation of the resulting oligomers, fluorescence efficiency gradually decreases in 24 hours, although it maintains a quantum yield of 65%. […] Indeed, the diffusion of the dye outside of the cell organelle, which occurs in dyes not covalently bonded thereto, is one of the main problems in the development of fluorescent biological markers because it entails a significant reduction in fluorescent efficiency and, thus, in the accuracy and reproducibility of the experiments. The rational design of probe 4 must, therefore, prevent this loss of fluorescence signal and improve the quality and accuracy of the measurements, thereby enhancing its applicability as a biological probe.

time for which the fluorescence yield remains constant (in water): 7 h
quantum yield (in water, in 24 hours): 65%
kfl (time 00:00 (hours:min)): 1.14 10^8s^-1
knr (time 00:00 (hours:min)): 0.23 10^8s^-1
εmax (time 00:00 (hours:min)): 3.8 10^4 M^-1 CM^-1
λab (time 00:00 (hours:min)): 499 nm
λfl (time 00:00 (hours:min)): 511 nm
τ (time 00:00 (hours:min)): 7.30 ns
φ (time 00:00 (hours:min)): 0.83
kfl (time 00:10 (hours:min)): 1.14 10^8s^-1
knr (time 00:10 (hours:min)): 0.24 10^8s^-1
εmax (time 00:10 (hours:min)): 3.8 10^4 M^-1 CM^-1
λab (time 00:10 (hours:min)): 498 nm
λfl (time 00:10 (hours:min)): 511 nm
τ (time 00:10 (hours:min)): 7.25 ns
φ (time 00:10 (hours:min)): 0.82
kfl (time 00:25 (hours:min)): 1.14 10^8s^-1
knr (time 00:25 (hours:min)): 0.25 10^8s^-1
εmax (time 00:25 (hours:min)): 3.8 10^4 M^-1 CM^-1
λab (time 00:25 (hours:min)): 498 nm
λfl (time 00:25 (hours:min)): 511 nm
τ (time 00:25 (hours:min)): 7.20 ns
φ (time 00:25 (hours:min)): 0.82
kfl (time 00:50 (hours:min)): 1.16 10^8s^-1
knr (time 00:50 (hours:min)): 0.24 10^8s^-1
εmax (time 00:50 (hours:min)): 3.8 10^4 M^-1 CM^-1
λab (time 00:50 (hours:min)): 498 nm
λfl (time 00:50 (hours:min)): 509 nm
τ (time 00:50 (hours:min)): 7.15 ns
φ (time 00:50 (hours:min)): 0.83
kfl (time 01:20 (hours:min)): 1.17 10^8s^-1
knr (time 01:20 (hours:min)): 0.25 10^8s^-1
εmax (time 01:20 (hours:min)): 3.8 10^4 M^-1 CM^-1
λab (time 01:20 (hours:min)): 498 nm
λfl (time 01:20 (hours:min)): 509 nm
τ (time 01:20 (hours:min)): 7.05 ns
φ (time 01:20 (hours:min)): 0.83
kfl (time 02:00 (hours:min)): 1.18 10^8s^-1
knr (time 02:00 (hours:min)): 0.25 10^8s^-1
εmax (time 02:00 (hours:min)): 3.8 10^4 M^-1 CM^-1
λab (time 02:00 (hours:min)): 497 nm
λfl (time 02:00 (hours:min)): 509 nm
τ (time 02:00 (hours:min)): 7.00 ns
φ (time 02:00 (hours:min)): 0.83
kfl (time 03:00 (hours:min)): 1.18 10^8s^-1
knr (time 03:00 (hours:min)): 0.26 10^8s^-1
εmax (time 03:00 (hours:min)): 3.8 10^4 M^-1 CM^-1
λab (time 03:00 (hours:min)): 497 nm
λfl (time 03:00 (hours:min)): 509 nm
τ (time 03:00 (hours:min)): 6.95 ns
φ (time 03:00 (hours:min)): 0.82
kfl (time 04:00 (hours:min)): 1.19 10^8s^-1
knr (time 04:00 (hours:min)): 0.26 10^8s^-1
εmax (time 04:00 (hours:min)): 3.8 10^4 M^-1 CM^-1
λab (time 04:00 (hours:min)): 497 nm
λfl (time 04:00 (hours:min)): 509 nm
τ (time 04:00 (hours:min)): 6.90 ns
φ (time 04:00 (hours:min)): 0.82
kfl (time 05:00 (hours:min)): 1.22 10^8s^-1
knr (time 05:00 (hours:min)): 0.26 10^8s^-1
εmax (time 05:00 (hours:min)): 3.8 10^4 M^-1 CM^-1
λab (time 05:00 (hours:min)): 497 nm
λfl (time 05:00 (hours:min)): 508 nm
τ (time 05:00 (hours:min)): 6.80 ns
φ (time 05:00 (hours:min)): 0.82
kfl (time 06:00 (hours:min)): 1.23 10^8s^-1
knr (time 06:00 (hours:min)): 0.26 10^8s^-1
εmax (time 06:00 (hours:min)): 3.8 10^4 M^-1 CM^-1
λab (time 06:00 (hours:min)): 496 nm
λfl (time 06:00 (hours:min)): 508 nm
τ (time 06:00 (hours:min)): 6.70 ns
φ (time 06:00 (hours:min)): 0.83
kfl (time 07:00 (hours:min)): 1.24 10^8s^-1
knr (time 07:00 (hours:min)): 0.26 10^8s^-1
εmax (time 07:00 (hours:min)): 3.8 10^4 M^-1 CM^-1
λab (time 07:00 (hours:min)): 496 nm
λfl (time 07:00 (hours:min)): 508 nm
τ (time 07:00 (hours:min)): 6.65 ns
φ (time 07:00 (hours:min)): 0.83
kfl (time 24:00 (hours:min)): 1.03 10^8s^-1
knr (time 24:00 (hours:min)): 0.54 10^8s^-1
εmax (time 24:00 (hours:min)): 3.7 10^4 M^-1 CM^-1
λab (time 24:00 (hours:min)): 496 nm
λfl (time 24:00 (hours:min)): 507 nm
τ (time 24:00 (hours:min)): 6.50 ns
φ (time 24:00 (hours:min)): 0.65
SMILES: CC1=CC(C)=[N+]2C1=C(c1c(C)cc(C)cc1C)c1c(C)cc(C)n1[B-]21OC(=O)C[C@H](C[N+](C)(C)C)O1 (stereo partly drawn) [Compound 4]
effect of hydrolysis on fluorescence emission (in water): does not entail a significant reduction in its fluorescence emission
